Non-standard residues stand in square brackets, D forms with d. Residues, ends and D or L forms follow the SMILES beside them. No end group written: not given here.
Assays:
[1] = test system: human red blood cells (hRBCs); experiment: Hemolysis assay; format: cell-based; settings: hRBCs, peptide 250 µg/mL, 1 h, 37 °C
Procedure: The hemolytic activity of peptides was determined as the amount of hemoglobin released from lysed human red blood cells (hRBCs) after treatment with peptide. Fresh hRBCs were collected from a healthy volunteer in polycarbonate tubes containing heparin. Then, the collected packed RBCs were washed at least three times (or until the supernatant was clear) with sterile phosphate-buffered saline pH 7.4 (PBS) and centrifuged at 2,000 × g for 5 min. The 2% (v/v) of washed hRBCs in PBS were incubated with serially diluted peptides (0.98 to 250 μg/ml) for 1 h at 37 °C. After centrifugation, the supernatants were monitored for optical density (OD) at 405 nm using a Multiskan FC Microplate Reader[21]. Values for 0% (negative control) and 100% (positive control) lysis were determined by incubating the hRBCs with PBS only (ODBlank) and 0.1% (v/v) Triton X-100 (ODTriton X-100), respectively. The experiments were performed in triplicate. The percent hemolysis was calculated according to the following equation: %Hemolysis=ODSample-ODBlank/ODTriton X-100-ODBlank×100

[2] = test system: A. baumannii D-10.1–1 (MDR); format: cell-based, Acinetobacter baumannii; settings: clinical isolate D-10.1–1 (MDR), urine
Excerpt: (§1) Ten strains of both Gram-positive and -negative bacteria, including Staphylococcus aureus ATCC 25,923, S. epidermidis ATCC 12,228, Bacillus cereus ATCC 11,778, Listeria monocytogenes 10403S, Salmonella typhimurium ATCC 13,311, Pseudomonas aeruginosa ATCC 27,853, Shigella sonnei ATCC 11,060, A. baumannii ATCC 19,606, Escherichia coli ATCC 25,922 and E. coli O157:H7, were used in this study. Eight clinical isolates of multidrug-resistant (MDR) and extensively drug-resistant (XDR) A. baumannii, isolated from human (blood, sputum, respiratory sample, sterile site sample and urine), were kindly provided by Asst. Prof. Dr. Sakawrat Kanthawong (Faculty of Medicine, Khon Kaen University, Thailand) (Table S1). All bacterial strains, excluding L. monocytogenes 10403S and E. coli, were cultured in tryptic soy broth (TSB). L. monocytogenes was grown in TSB supplemented with 0.6% yeast extract (TSB-YE), and E. coli was cultured in Luria broth (LB). All of bacteria were cultured at 37 °C with continuous shaking at 220 rpm.
(§2) Minimum inhibitory concentration (MIC) of peptides and antibiotics was assessed by a modified version of the broth microdilution method from the Clinical and Laboratory Standards Institute (CLSI) as previously described. In brief, mid-log phase growths of microbial strains were cultured in Müeller-Hinton broth (MHB) with an initial inoculum of 2–8 × 10^5 CFU/mL. Bacteria suspensions were incubated in sterile 96-well plates with test agents at desired concentrations. […] Minimum bactericidal concentration (MBC) determination was performed using a modified version of the colony count assay. In brief, fifty µl of all non-turbid wells from MIC experiments were spread on agar plates. The MBC value was defined as the lowest concentration of peptides with no colony growth on the plate. All assays were performed in triplicate.

[3] = test system: A. baumannii D-10.1–2 (MDR); format: cell-based, Acinetobacter baumannii; settings: clinical isolate D-10.1–2 (MDR), urine
Excerpt: as §1, §2

A. baumannii ATCC 19,606 [4] = experiment: Peptide stability in human plasma (MIC/MBC after pre-incubation); format: cell-based, Acinetobacter baumannii; settings: peptide mixed with pure human plasma, 1 h, 37 °C, then two-fold diluted in MHB, bacteria 24 h
Procedure: as §2
(§3) The MIC and MBC assays were performed after peptide was exposed to various conditions, including proteolytic enzymes, serum salts and human plasma. […] To determine peptide sensitivity to physiological salts, approximately 5 × 10^5 CFU/ml of A. baumannii ATCC 19,606 was mixed with the MHB containing different physiological salts at final concentration as follows: 150 mM NaCl, 4.5 mM KCl, 1 mM MgCl2, 6 µM NH4Cl, 8 µM ZnCl2, 4 µM FeCl3 and […]. After treatment, the MIC was evaluated as described in 2.4. To test the stability of peptides in human plasma, peptide was mixed with pure human plasma, and the mixture was incubated for 1 h at 37 °C. Then, the mixture was two-fold serially diluted with sterile MHB. The peptides at final concentrations of 0.98 to 250 µg/ml were incubated with an equal volume of bacterial suspension at 37 °C for 24 h. MIC values were determined as described in 2.4.

A. baumannii ATCC 19,606 [5] = experiment: Peptide stability to proteolytic enzymes (MIC/MBC after pre-incubation); format: cell-based, Acinetobacter baumannii; settings: for MBC, control / MIC, control: control: absence of human plasma and proteolytic enzymes, A. baumannii ATCC 19,606; for MBC in the presence of pepsin / MIC in the presence of pepsin: peptide pre-incubated with 1 mg/ml pepsin
Procedure: as §2, §3

A. baumannii ATCC 19,606 [6] = experiment: Peptide sensitivity to physiological salts (MIC/MBC); format: cell-based, Acinetobacter baumannii; settings: for MBC in the presence of FeCl3 / MIC in the presence of FeCl3: MHB with 4 µM FeCl3; for MBC in the presence of NH4Cl / MIC in the presence of NH4Cl: MHB with 6 µM NH4Cl; for MBC in the presence of ZnCl2 / MIC in the presence of ZnCl2: MHB with 8 µM ZnCl2; for MBC in the presence of MgCl2 / MIC in the presence of MgCl2: MHB with 1 mM MgCl2; for MBC in the presence of KCl / MIC in the presence of KCl: MHB with 4.5 mM KCl; for MBC in the presence of NaCl / MIC in the presence of NaCl: MHB with 150 mM NaCl; for MBC in the presence of CaCl2 / MIC in the presence of CaCl2: MHB with […] CaCl2; for MBC, control / MIC, control: control: absence of serum salts, MHB
Procedure: as §2, §3

[7] = test system: mouse fibroblast (L929) cells; experiment: In vitro cytotoxicity assay (MTT); format: cell-based; settings: 24 h
Procedure: The colorimetric 3-(4,5 dimethylthiazol-2-yl)-2,5-diphenyltetrazolium bromide (MTT; Invitrogen) dye reduction assay was used to determine the cytotoxicity of peptides on mouse fibroblast (L929) cells (NCTC clone 929) according to a modified MTT assay. L929 cells were cultured in Dulbecco’s Modified Eagle Medium (DMEM; Gibco) containing 10% fetal bovine serum (FBS; Gibco) and 100 U/ml penicillin–streptomycin in a fully humidified atmosphere of 95% air and 5% CO2 at 37 °C. The cells (10^5 cells/well) were seeded on 96-well plates and incubated with serially diluted peptide (0.98 to 250 μg/ml) for 24 h. At the end of incubation period, MTT solution (100 µl, 0.4 mg/ml) was added to each well and incubated for 4 h. The supernatants were removed and replaced by 100 µl of DMSO to dissolve the purple formazan crystals. Absorbance was measured using a MultiskanTM FC microplate reader at a wavelength of 570 nm. Cells without peptides served as negative controls. Cell viability (percentage) was calculated using the following equation: %Cell viability=OD570of treated sample-ODBlank/OD570of control-ODBlank×100%

[8] = peptide pre-incubated with 1 mg/ml proteinase K, 37 °C, 1 h
[9] = peptide pre-incubated with 1 mg/ml trypsin, 37 °C, 1 h

CC[C@@H](C)[C@@H](NC(=O)[C@@H](CCCCN)NC(=O)CNC(=O)[C@@H](C)NC(=O)[C@H](NC(=O)[C@@H](CCCCN)NC(=O)[C@@H](CCCCN)NC(=O)[C@H](NC(=O)[C@@H](CCCNC(=N)N)NC(=O)[C@@H](CCCNC(=N)N)NC(=O)[C@@H](Cc1ccccc1)NC(=O)[C@@H](CC(C)C)NC(=O)[C@H](N)CCCNC(=N)N)C(C)C)C(C)C)C(=O)N[C@H](C)C(=O)N[C@H](CCCCN)C(=O)N[C@H](CCCNC(=N)N)C(=O)N[C@@H](C(=O)N[C@H](Cc1c[nH]c2ccccc12)C(=O)N[C@H](CCCCN)C(N)=O)[C@H](C)CC [D-AP19] (H-[dR][dL][dF][dR][dR][dV][dK][dK][dV][dA]G[dK][dI][dA][dK][dR][dI][dW][dK]-NH2)
Hemolysis [1]: 3.28%
MBC [2]: 7.81(7.81) µg/ml
MIC [2]: 7.81(7.81) µg/ml
MBC [3]: 7.81(7.81) µg/ml
MIC [3]: 7.81(7.81) µg/ml
MBC in the presence of human plasma (A. baumannii ATCC 19,606 [4]): 31.25(31.25) µg/ml
MIC in the presence of human plasma (A. baumannii ATCC 19,606 [4]): 31.25(31.25) µg/ml
MBC, control (A. baumannii ATCC 19,606 [5]): 7.81(7.81) µg/ml
MIC, control (A. baumannii ATCC 19,606 [5]): 7.81(7.81) µg/ml
MBC in the presence of pepsin (A. baumannii ATCC 19,606 [5]; 37 °C, 1 h): 15.63(15.63) µg/ml
MIC in the presence of pepsin (A. baumannii ATCC 19,606 [5]; 37 °C, 1 h): 15.63(15.63) µg/ml
MBC in the presence of proteinase K (A. baumannii ATCC 19,606 [5]; [8]): 7.81(7.81) µg/ml
MIC in the presence of proteinase K (A. baumannii ATCC 19,606 [5]; [8]): 7.81(7.81) µg/ml
MBC in the presence of trypsin (A. baumannii ATCC 19,606 [5]; [9]): 7.81(7.81) µg/ml
MIC in the presence of trypsin (A. baumannii ATCC 19,606 [5]; [9]): 7.81(7.81) µg/ml
MBC in the presence of FeCl3 (A. baumannii ATCC 19,606 [6]): 15.63(15.63) µg/ml
MIC in the presence of FeCl3 (A. baumannii ATCC 19,606 [6]): 15.63(15.63) µg/ml
MBC in the presence of NH4Cl (A. baumannii ATCC 19,606 [6]): 7.81(7.81) µg/ml
MIC in the presence of NH4Cl (A. baumannii ATCC 19,606 [6]): 7.81(7.81) µg/ml
MBC in the presence of ZnCl2 (A. baumannii ATCC 19,606 [6]): 15.63(15.63) µg/ml
MIC in the presence of ZnCl2 (A. baumannii ATCC 19,606 [6]): 15.63(15.63) µg/ml
MBC in the presence of MgCl2 (A. baumannii ATCC 19,606 [6]): 7.81(7.81) µg/ml
MIC in the presence of MgCl2 (A. baumannii ATCC 19,606 [6]): 7.81(7.81) µg/ml
MBC in the presence of KCl (A. baumannii ATCC 19,606 [6]): 15.63(15.63) µg/ml
MIC in the presence of KCl (A. baumannii ATCC 19,606 [6]): 15.63(15.63) µg/ml
MBC in the presence of NaCl (A. baumannii ATCC 19,606 [6]): 62.5(62.5) µg/ml
MIC in the presence of NaCl (A. baumannii ATCC 19,606 [6]): 62.5(62.5) µg/ml
MBC in the presence of CaCl2 (A. baumannii ATCC 19,606 [6]): 15.63(15.63) µg/ml
MIC in the presence of CaCl2 (A. baumannii ATCC 19,606 [6]): 15.63(15.63) µg/ml
MBC, control (A. baumannii ATCC 19,606 [6]): 7.81(7.81) µg/ml
MIC, control (A. baumannii ATCC 19,606 [6]): 7.81(7.81) µg/ml
cell viability ([7]; 1 × and 2 × MIC): 100%
cell viability ([7]; peptide 62.5 µg/mL): more than 70%

RLFRRVKKVAGKIAKRIWK-NH2 [AP19]
Hemolysis [1]: 7.25%
MBC [2]: 7.81(7.81) µg/ml
MIC [2]: 7.81(7.81) µg/ml
MBC [3]: 3.91(3.91) µg/ml
MIC [3]: 3.91(3.91) µg/ml
MBC in the presence of human plasma (A. baumannii ATCC 19,606 [4]): 250(250) µg/ml
MIC in the presence of human plasma (A. baumannii ATCC 19,606 [4]): 250(250) µg/ml
MBC, control (A. baumannii ATCC 19,606 [5]): 7.81(7.81) µg/ml
MIC, control (A. baumannii ATCC 19,606 [5]): 7.81(7.81) µg/ml
MBC in the presence of pepsin (A. baumannii ATCC 19,606 [5]; 37 °C, 1 h): 31.25(31.25) µg/ml
MIC in the presence of pepsin (A. baumannii ATCC 19,606 [5]; 37 °C, 1 h): 31.25(31.25) µg/ml
MBC in the presence of FeCl3 (A. baumannii ATCC 19,606 [6]): 7.81(7.81) µg/ml
MIC in the presence of FeCl3 (A. baumannii ATCC 19,606 [6]): 7.81(7.81) µg/ml
MBC in the presence of NH4Cl (A. baumannii ATCC 19,606 [6]): 7.81(7.81) µg/ml
MIC in the presence of NH4Cl (A. baumannii ATCC 19,606 [6]): 7.81(7.81) µg/ml
MBC in the presence of ZnCl2 (A. baumannii ATCC 19,606 [6]): 7.81(7.81) µg/ml
MIC in the presence of ZnCl2 (A. baumannii ATCC 19,606 [6]): 7.81(7.81) µg/ml
MBC in the presence of MgCl2 (A. baumannii ATCC 19,606 [6]): 7.81(7.81) µg/ml
MIC in the presence of MgCl2 (A. baumannii ATCC 19,606 [6]): 7.81(7.81) µg/ml
MBC in the presence of KCl (A. baumannii ATCC 19,606 [6]): 7.81(7.81) µg/ml
MIC in the presence of KCl (A. baumannii ATCC 19,606 [6]): 7.81(7.81) µg/ml
MBC in the presence of NaCl (A. baumannii ATCC 19,606 [6]): 31.25(31.25) µg/ml
MIC in the presence of NaCl (A. baumannii ATCC 19,606 [6]): 31.25(31.25) µg/ml
MBC in the presence of CaCl2 (A. baumannii ATCC 19,606 [6]): 7.81(7.81) µg/ml
MIC in the presence of CaCl2 (A. baumannii ATCC 19,606 [6]): 7.81(7.81) µg/ml
MBC, control (A. baumannii ATCC 19,606 [6]): 7.81(7.81) µg/ml
MIC, control (A. baumannii ATCC 19,606 [6]): 7.81(7.81) µg/ml
cell viability ([7]; all tested peptide concentrations (0.98 to 250 μg/ml)): 100%

Reference: paper PMC9508196 (Scientific Reports, 2022)
